Measured values taken from patent publication US9938273B2 (Plexxikon Inc., priority 2015, dated 2018).

Columns and labels:
[1] = molecular target: T1, FLT3-ITD (Homo sapiens, UniProt P36888); experiment: AlphaScreen kinase assay with recombinant enzyme, FLT3-ITD; format: biochemical; settings: 8pt; read-out: FLT3_ITD 8pt: IC50
T1 sequence (P36888 1-993): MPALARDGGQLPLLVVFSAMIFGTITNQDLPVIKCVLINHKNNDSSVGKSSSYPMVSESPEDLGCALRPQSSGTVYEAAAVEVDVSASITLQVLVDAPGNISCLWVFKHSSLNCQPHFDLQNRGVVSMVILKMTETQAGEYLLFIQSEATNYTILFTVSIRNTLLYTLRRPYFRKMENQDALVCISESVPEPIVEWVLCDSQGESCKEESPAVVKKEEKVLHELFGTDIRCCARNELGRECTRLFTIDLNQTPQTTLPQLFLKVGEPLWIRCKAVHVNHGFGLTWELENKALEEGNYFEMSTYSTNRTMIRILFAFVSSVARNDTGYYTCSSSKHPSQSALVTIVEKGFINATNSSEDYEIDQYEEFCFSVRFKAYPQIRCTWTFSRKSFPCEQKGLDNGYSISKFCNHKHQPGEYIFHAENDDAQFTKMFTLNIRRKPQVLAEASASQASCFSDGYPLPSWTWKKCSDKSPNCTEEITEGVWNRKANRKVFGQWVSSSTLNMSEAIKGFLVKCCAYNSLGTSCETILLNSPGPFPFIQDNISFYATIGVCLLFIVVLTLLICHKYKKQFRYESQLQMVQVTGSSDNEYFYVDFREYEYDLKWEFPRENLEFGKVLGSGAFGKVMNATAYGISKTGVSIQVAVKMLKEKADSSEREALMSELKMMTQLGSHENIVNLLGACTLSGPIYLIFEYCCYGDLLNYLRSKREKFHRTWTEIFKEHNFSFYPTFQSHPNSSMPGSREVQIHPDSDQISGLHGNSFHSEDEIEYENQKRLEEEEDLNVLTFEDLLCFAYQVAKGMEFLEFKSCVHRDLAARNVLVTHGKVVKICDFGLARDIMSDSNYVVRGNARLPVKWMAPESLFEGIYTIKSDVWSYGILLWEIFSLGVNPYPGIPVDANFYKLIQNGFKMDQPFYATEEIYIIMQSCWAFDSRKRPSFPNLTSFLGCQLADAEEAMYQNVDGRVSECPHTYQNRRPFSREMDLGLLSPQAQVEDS
In short: (§1)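 Read-out: AlphaScreen proximity signal at 580 nm (680 nm excitation), lost as peptide tyrosine phosphorylation falls. Substrate Biotin-GG(EEEEY)10EE at 30 nM; IC50 runs at 10 μM (FLT3 mutants) or 100 μM (c-KIT) final. Donor beads 20 min, then acceptor beads 60 min, room temperature.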

[2] = molecular target: T2, c-KIT (Homo sapiens, UniProt P10721); experiment: AlphaScreen kinase assay with recombinant enzyme, c-KIT; format: biochemical; settings: 100ATP, 8pt, GMean
T2 construct: purchased Millipore 14-559K
In short: as §1

T2 sequence (P10721 26-976): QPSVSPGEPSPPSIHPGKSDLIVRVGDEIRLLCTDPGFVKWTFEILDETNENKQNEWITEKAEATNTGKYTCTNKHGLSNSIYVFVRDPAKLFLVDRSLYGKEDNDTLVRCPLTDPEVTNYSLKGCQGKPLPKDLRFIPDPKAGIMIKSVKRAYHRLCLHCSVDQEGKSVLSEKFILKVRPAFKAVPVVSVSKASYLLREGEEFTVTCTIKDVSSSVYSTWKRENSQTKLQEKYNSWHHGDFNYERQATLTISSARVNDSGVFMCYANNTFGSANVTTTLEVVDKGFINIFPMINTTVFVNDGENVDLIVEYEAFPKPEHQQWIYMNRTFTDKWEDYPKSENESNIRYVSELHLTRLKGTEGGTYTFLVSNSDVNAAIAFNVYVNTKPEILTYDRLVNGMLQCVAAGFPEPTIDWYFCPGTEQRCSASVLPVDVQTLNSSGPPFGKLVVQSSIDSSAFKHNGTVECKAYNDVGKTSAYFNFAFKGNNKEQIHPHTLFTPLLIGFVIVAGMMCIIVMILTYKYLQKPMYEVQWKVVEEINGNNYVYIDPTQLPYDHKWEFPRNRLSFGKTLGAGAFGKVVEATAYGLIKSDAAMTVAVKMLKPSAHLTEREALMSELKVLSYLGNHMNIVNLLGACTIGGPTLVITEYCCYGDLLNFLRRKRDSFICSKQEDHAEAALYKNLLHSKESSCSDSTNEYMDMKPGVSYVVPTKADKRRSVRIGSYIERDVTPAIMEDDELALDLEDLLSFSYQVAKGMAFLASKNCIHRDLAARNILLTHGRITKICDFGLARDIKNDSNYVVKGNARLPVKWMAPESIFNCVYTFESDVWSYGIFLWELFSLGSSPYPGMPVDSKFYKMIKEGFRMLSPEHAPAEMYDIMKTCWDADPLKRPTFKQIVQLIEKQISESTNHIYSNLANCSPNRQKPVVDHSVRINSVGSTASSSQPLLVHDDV

SMILES | IC50 [1] [µM] | IC50 [2] [µM]
CS(=O)(=O)NC1CCN(C(=O)c2cccc(-c3cnc4[nH]c(-c5ccccc5)cc4c3)n2)C1 (stereo not shown) [Compound P-0101, N-[1-[6-(2-phenyl-1H-pyrrolo[2,3-b]pyridin-5-yl)pyridine-2-carbonyl]pyrrolidin-3-yl]methanesulfonamide] | 0.0001 to 10 | 50 to 100
O=C(c1cccc(-c2cnc3[nH]c(-c4ccccc4)cc3c2)n1)N1CCC(N2CCOCC2)C1 (stereo not shown) [Compound P-0102, (3-morpholinopyrrolidin-1-yl)-[6-(2-phenyl-1H-pyrrolo[2,3-b]pyridin-5-yl)-2-pyridyl]methanone] | 0.0001 to 10 | 50 to 100
O=C(c1cccc(-c2cnc3[nH]c(-c4ccccc4)cc3c2)n1)N1CCC(C(F)(F)F)C1 (stereo not shown) [Compound P-0103, [6-(2-phenyl-1H-pyrrolo[2,3-b]pyridin-5-yl)-2-pyridyl]-[3-(trifluoromethyl)pyrrolidin-1-yl]methanone] | 0.0001 to 10 | 50 to 100
CN(C)C1CCN(C(=O)c2cccc(-c3cnc4[nH]c(-c5ccccc5)cc4c3)n2)C1 (stereo not shown) [Compound P-0104, [3-(dimethylamino)pyrrolidin-1-yl]-[6-(2-phenyl-1H-pyrrolo[2,3-b]pyridin-5-yl)-2-pyridyl]methanone] | 0.0001 to 10 | 0.0001 to 10
N#CC1CCN(C(=O)c2cccc(-c3cnc4[nH]c(-c5ccc(F)cc5)cc4c3)n2)C1 (stereo not shown) [Compound P-0116, 1-[6-[2-(4-fluorophenyl)-1H-pyrrolo[2,3-b]pyridin-5-yl]pyridine-2-carbonyl]pyrrolidine-3-carbonitrile] | 0.0001 to 10 | 0.0001 to 10
CC(C)(C#N)NC(=O)c1cccc(-c2cnc3[nH]c(-c4ccc(C(F)(F)F)nc4)cc3c2)n1 [Compound P-0201, N-(1-cyano-1-methyl-ethyl)-6-[2-[6-(trifluoromethyl)-3-pyridyl]-1H-pyrrolo[2,3-b]pyridin-5-yl]pyridine-2-carboxamide] | 0.0001 to 10 | 50 to 100
CC(C)(C#N)NC(=O)c1cccc(-c2cnc3[nH]c(-c4cnc(C(F)(F)F)nc4)cc3c2)n1 [Compound P-0204, N-(1-cyano-1-methyl-ethyl)-6-[2-[2-(trifluoromethyl)pyrimidin-5-yl]-1H-pyrrolo[2,3-b]pyridin-5-yl]pyridine-2-carboxamide] | 0.0001 to 10 | 50 to 100
CC(C)(C#N)NC(=O)c1cccc(-c2cnc3[nH]c(-c4ccc(F)nc4)cc3c2)n1 [Compound P-0208, N-(1-cyano-1-methyl-ethyl)-6-[2-(6-fluoro-3-pyridyl)-1H-pyrrolo[2,3-b]pyridin-5-yl]pyridine-2-carboxamide] | 0.0001 to 10 | 50 to 100
CC(C)(C#N)NC(=O)c1cccc(-c2cnc3[nH]c(-c4cnc(C(C)(C)O)nc4)cc3c2)n1 [Compound P-0211, N-(1-cyano-1-methyl-ethyl)-6-[2-[2-(1-hydroxy-1-methyl-ethyl)pyrimidin-5-yl]-1H-pyrrolo[2,3-b]pyridin-5-yl]pyridine-2-carboxamide] | 0.0001 to 10 | 50 to 100

The remaining lines, values ahead:

IC50 [1] [µM] | IC50 [2] [µM] | SMILES
0.0001 to 10 | 10 to 50 | O=S(=O)(NC1CNC1)c1cccc(-c2cnc3[nH]c(-c4ccccc4)cc3c2)n1 [Compound P-0071, N-(azetidin-3-yl)-6-(2-phenyl-1H-pyrrolo[2,3-b]pyridin-5-yl)pyridine-2-sulfonamide]
0.0001 to 10 | 0.0001 to 10 | O=S(=O)(NC1CCNC1)c1cccc(-c2cnc3[nH]c(-c4ccccc4)cc3c2)n1 (stereo not shown) [Compound P-0072, 6-(2-phenyl-1H-pyrrolo[2,3-b]pyridin-5-yl)-N-pyrrolidin-3-yl-pyridine-2-sulfonamide]
0.0001 to 10 | 0.0001 to 10 | NC1CCN(S(=O)(=O)c2cccc(-c3cnc4[nH]c(-c5ccccc5)cc4c3)n2)CC1 [Compound P-0073, 1-[[6-(2-phenyl-1H-pyrrolo[2,3-b]pyridin-5-yl)-2-pyridyl]sulfonyl]piperidin-4-amine]
0.0001 to 10 | 0.0001 to 10 | O=C(Nc1cccc(-c2cnc3[nH]c(-c4ccccc4)cc3c2)n1)C1CNC1 [Compound P-0084, N-[6-(2-phenyl-1H-pyrrolo[2,3-b]pyridin-5-yl)-2-pyridyl]azetidine-3-carboxamide]
0.0001 to 10 | 0.0001 to 10 | O=C(c1cccc(-c2cnc3[nH]c(-c4ccccc4)cc3c2)n1)N1CCC(NC2CC2)C1 (stereo not shown) [Compound P-0085, [3-(cyclopropylamino)pyrrolidin-1-yl]-[6-(2-phenyl-1H-pyrrolo[2,3-b]pyridin-5-yl)-2-pyridyl]methanone]
0.0001 to 10 | 0.0001 to 10 | O=S(=O)(NC1CCNCC1)c1cccc(-c2cnc3[nH]c(-c4ccccc4)cc3c2)n1 [Compound P-0086, 6-(2-phenyl-1H-pyrrolo[2,3-b]pyridin-5-yl)-N-(4-piperidyl)pyridine-2-sulfonamide]
0.0001 to 10 | 0.0001 to 10 | NC1CCC(NS(=O)(=O)c2cccc(-c3cnc4[nH]c(-c5ccccc5)cc4c3)n2)CC1 (stereo not shown) [Compound P-0088, N-(4-aminocyclohexyl)-6-(2-phenyl-1H-pyrrolo[2,3-b]pyridin-5-yl)pyridine-2-sulfonamide]
0.0001 to 10 | 50 to 100 | O=C(c1cccc(-c2cnc3[nH]c(-c4ccccc4)cc3c2)n1)N1CC(F)(F)C1 [Compound P-0090, (3,3-difluoroazetidin-1-yl)-[6-(2-phenyl-1H-pyrrolo[2,3-b]pyridin-5-yl)-2-pyridyl]methanone]
0.0001 to 10 | 50 to 100 | COC1CN(C(=O)c2cccc(-c3cnc4[nH]c(-c5ccccc5)cc4c3)n2)C1 [Compound P-0091, (3-methoxyazetidin-1-yl)-[6-(2-phenyl-1H-pyrrolo[2,3-b]pyridin-5-yl)-2-pyridyl]methanone]
0.0001 to 10 | 50 to 100 | CC1(C#N)CCN(C(=O)c2cccc(-c3cnc4[nH]c(-c5ccccc5)cc4c3)n2)CC1 [Compound P-0094, 4-methyl-1-[6-(2-phenyl-1H-pyrrolo[2,3-b]pyridin-5-yl)pyridine-2-carbonyl]piperidine-4-carbonitrile]
0.0001 to 10 | 50 to 100 | COC1CCN(C(=O)c2cccc(-c3cnc4[nH]c(-c5ccccc5)cc4c3)n2)CC1 [Compound P-0098, (4-methoxy-1-piperidyl)-[6-(2-phenyl-1H-pyrrolo[2,3-b]pyridin-5-yl)-2-pyridyl]methanone]
